Assay results reported in US10392352B2, “Etomidate derivative and intermediate, preparation method and use thereof” (JIANGSU NHWALUOKANG PHARMACEUTICAL RESEARCH AND DEVELOPMENT …, priority 2015, dated 2019).

Legend:
Male Kunming mice = assay: Test for latent period and persistent period of anesthesia in mice; type: in vivo; conditions: 6 mg/kg (3*ED50), caudal vein, n = 5; for Latent period: time for disappearance of righting reflex; for Persistent period: time for recovery
Protocol: Test of the etomidate derivative of the present invention for latent period and persistent period of anesthesia in mice
Male Kunming mice were divided into groups, 5 for each group. The test drug was administered by injection at a constant rate via caudal vein for 10 seconds. The time for disappearance of righting reflex (latent period) and the time for recovery (persistent period) were recorded.

mice = assay: Influence on the blood pressure and followed-up reactions after recovery in mice anesthesia test; type: in vivo; conditions: for tail bleeding: few / tail bleeding: much / tail bleeding: none / tremor / grooming: after administration & before anesthesia
KM mice (male) = assay: Test of ED50 and LD50 of anesthesia in mice (sequential method; disappearance of righting reflex or death); type: in vivo; conditions: for ED50: Mus musculus; for TI: TI=LD50/ED50, mice
Protocol: (§1) Test of ED50 and LD50 of the etomidate derivative of the present invention in mice
(§2) Accurately weighed compounds 14, 15, 16 and 18 (5 mg for each of the compounds) were placed in 10 ml centrifuge tubes, respectively. Then 1 ml blank emulsion (20% soybean oil blank emulsion) was added to each tube, and the mixture was sonicated in an ultrasonic apparatus for several minutes to obtain a 5 mg/ml homogeneous emulsion, which was drawn by an injection syringe right before use. An etomidate fat emulsion injection (commercially available, 2 mg/ml) was used as control. The administration concentration in mice was fixed, and the administration volume varied according to actual situation.
(§3) ED50 and LD50 values concerning anesthesia were determined using a sequential method. Administrations in this test were performed on qualified healthy KM mice (male) by injection at a constant rate via caudal vein for 10 seconds. Before the test, a preliminary trial test was conducted to determine an approximate dosage (administration volume) that leads to anesthetization (or death) in animals, which was then set as the intermediate dosage in the formal test. 2-3 Dosage groups were set above and below the intermediate dosage group with an interval of 0.8. The disappearance of righting reflex or death was used as indicators of pharmacological efficacy or toxicity, respectively. The formal test began with the administration of the intermediate dosage. If animals were anesthetized, a lower dosage was administered; otherwise if animals were not anesthetized, a higher dosage was administered, until the cycle was repeated for 3-4 times. LD50 and ED50 values of anesthesia were calculated by a sequential method on aot425 software. TI was calculated according to the following equation: TI=LD50/ED50.

[1] = as above; type: in vivo; conditions: mouse, in vivo; male KM mice, caudal vein injection over 10 s, death, n = 10-20; range in brackets
Protocol: as §1, §2, §3

[2] = tested on: secretion of cortisol and/or corticosterone; conditions: background, literature; cited from earlier work
11β-hydroxylase = molecular target: T1, 11β-hydroxylase (Homo sapiens, UniProt P15538); conditions: background statement; cited from earlier work
T1 sequence (P15538 25-503): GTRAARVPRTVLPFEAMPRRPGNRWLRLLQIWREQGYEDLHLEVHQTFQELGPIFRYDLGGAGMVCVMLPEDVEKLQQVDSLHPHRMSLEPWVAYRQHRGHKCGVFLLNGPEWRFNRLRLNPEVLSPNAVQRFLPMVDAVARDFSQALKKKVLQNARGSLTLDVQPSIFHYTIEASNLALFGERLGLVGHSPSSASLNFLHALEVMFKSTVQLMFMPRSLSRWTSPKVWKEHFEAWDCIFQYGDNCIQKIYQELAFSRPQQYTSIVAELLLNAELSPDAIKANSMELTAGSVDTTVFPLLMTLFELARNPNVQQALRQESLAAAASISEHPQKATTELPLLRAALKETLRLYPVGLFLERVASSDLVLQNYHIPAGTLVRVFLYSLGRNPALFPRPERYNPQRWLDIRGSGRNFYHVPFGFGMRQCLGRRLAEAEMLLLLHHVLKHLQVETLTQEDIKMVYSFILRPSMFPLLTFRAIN

[3] = background, literature; cited from earlier work

SMILES	Walking time (Male Kunming mice) [s]	Latent period (Male Kunming mice) [s]	Persistent period (Male Kunming mice) [s]	tail bleeding: few (mice) [%]	tail bleeding: much (mice) [%]	tail bleeding: none (mice) [%]	tremor (mice) [%]	quiet (mice; post-recovery) [%]	ED50 (KM mice (male)) [mg/kg]	TI (KM mice (male))	LD50 [1] [mg/kg]	grooming (mice) [%]	jump (mice; post-recovery) [%]	inhibitory effect on the secretion of cortisol and/or corticosterone [2]	inhibitory effect on 11β-hydroxylase (11β-hydroxylase)	convulsion (mice; post-recovery) [%]	anesthetic effect / activity [3]	duration of action [3]
COC(=O)c1c(F)ncn1[C@H](C)c1ccccc1 [Compound 15, methyl R-1-(1-phenethyl)-1H-4-fluoroimidazole-5-carboxylate]	68.80 ± 30.10	5.90 ± 0.88	83.60 ± 29.13	50	40	10	70	100	2	24	48.4	–	–	–	–	–	–	–
CCOC(=O)c1c(F)ncn1[C@H](C)c1ccccc1 [Compound 16, ethyl R-1-(1-phenethyl)-1H-4-fluoroimidazole-5-carboxylate]	98.10 ± 63.96	5.80 ± 0.79	82.10 ± 20.18	60	30	10	70	80	2	23	46.5	10	20	–	–	–	–	–
CCOC(=O)c1cncn1[C@H](C)c1ccccc1 [Etomidate, ethyl R-(+)-1-(1-phenethyl)-1H-imidazole-5-carboxylate]	156.30 ± 120.78	5.40 ± 0.52	175.50 ± 100.09	50	10	40	80	50	2	25	50.3	20	40	reduce the secretion	inhibitory effect	10	–	–
COC(=O)CCOC(=O)c1cncn1[C@H](C)c1ccccc1 [Formula 7, Methoxycarbonyl-etomidate]	–	–	–	–	–	–	–	–	–	–	–	–	–	lower inhibitory effect	–	–	drastically decreased anesthetic effect	–
CCOC(=O)c1cccn1[C@H](C)c1ccccc1 [Formula 8]	–	–	–	–	–	–	–	–	–	–	–	–	–	little inhibition	–	–	decreased anesthetic activity	prolonged duration of action
